row,SMILES,melting point [°C]
1,OC(c1ccccc1F)c1cc(C(F)(F)F)nc2c(C(F)(F)F)cccc12 (stereo not drawn),120 to 121
2,CC(c1oc2ccc(F)cc2c(=O)c1-c1cccc(F)c1)n1nc(-c2cccc(O)c2)c2c(N)ncnc21 (stereo not drawn),193 to 196
3,Cc1nn2c(-c3cccc(NC(=O)CC(C)C)c3)ccnc2c1C(=O)c1cccs1,137 to 139
4,Nc1[nH]c(=O)[nH]c(=O)c1N,144 to 146
5,CN(Cc1ccccc1)c1nc(=O)n(C(=O)c2cccs2)cc1F,101 to 102
6,COc1ccc(C2=CC(=Nc3c(C)cc(C)cc3C)N(C)CN2C(C)=O)cc1OC,173 to 175
7,COc1cccc2c(=O)n3nc(C(N)=O)cc3[nH]c12,265 to 270
8,Cc1oc(-c2ccco2)nc1/C=C/c1ccc(/C=C/C=C/C=O)cc1,179 to 180
9,"O=C(CN1CCCC1=O)N1CCC(C2c3ncc(Br)cc3CCc3cc(Cl)cc(Br)c32)CC1 (single isomer, unassigned; (+))",118 to 119
10,CNC(=S)N(C)Cc1cnc(Cl)s1,129 to 131
11,CC(O)(C1=CCN(CCCC(=O)c2ccc(F)cc2)CC1)c1ccc(F)cc1 (stereo not drawn),95
12,O=C1C=C(c2c[nH]c3ccc(Cl)cc23)C(=O)N1,254 to 264
13,Cc1cnnc(-c2cccc(C(F)(F)F)c2)c1,114 to 116
14,CC(C)c1ccc(N(Cc2cnn(CCN(C)C)c2)C(=O)C2CCCc3c(O)cccc32)cc1 (stereo not drawn),92
15,CCCC[C@H](OCC[C@]1(C(=O)N2CCC(OCOC)CC2)C=CC=CC1)C(=O)N[C@@H](CC1CCCCC1)[C@@H](O)C(F)(F)CN(C)C,47 to 49
16,Cc1cc(CC(=O)c2ccccc2)on1,73 to 74
17,CCOC(=O)c1sc(=O)[nH]c1-c1cccc(C(F)(F)F)c1,168 to 171
18,O=C(O)[C@H](Cc1ccccc1)N[C@@H](CCc1ccccc1)C(=O)OCc1ccccc1,141 to 144
19,Cc1nc2cc(OCCCCl)ccc2s1,63 to 65
20,"Nc1nc(N2CCC2)c2ncn(C3CC(O)C(CO)C3)c2n1 (single isomer, unassigned; (+))",194 to 195
21,N#Cc1c(C2CC2)nn(-c2c(Cl)cc(C(F)(F)F)cc2Cl)c1N,197 to 199
22,CCC(C(=O)c1ccc(Cl)cc1)n1ncn(-c2cnc(N3CCN(c4ccc(OC)cc4)CC3)nc2)c1=O (stereo not drawn),185
23,COc1cc(C)c(C)cc1OC,41 to 42
24,O=C(O)C1CCC2C(=O)N(c3ccccc3)C(=S)N12 (stereo not drawn),230
25,C=CC(O)c1ccc2[nH]c(CCCC)nc(=O)c2c1 (stereo not drawn),141

row,SMILES,melting point [°C]
1,NC(=O)c1ccc(-c2ccc3nnn(Cc4ccc5ncccc5c4)c3n2)cc1C(F)(F)F,230 to 232
2,CC(C)(CCCN)C(Cc1c[nH]c([N+](=O)[O-])n1)=NO,136 to 137
3,Nc1ccc(-c2nc3ccc(Br)cc3s2)cc1,219 to 221
4,COc1ccc2c(c1)CCC1C2CCC2(C)C1CCC2N(C=O)CCOCCO (stereo not drawn),134 to 135
5,CNC(=O)[C@@H]1C[C@@H](OC)CN1S(=O)(=O)c1ccc(Cl)c(CBr)c1Cl,64
6,CC1N(c2cc(CC(Cl)C(=O)O)c(Cl)cc2Cl)NC(=O)N1C(F)F (stereo not drawn),138 to 141
7,O=C(NCCc1c[nH]cn1)c1ccccc1NS(=O)(=O)c1cccc(C(F)(F)F)c1,160 to 163
8,CC1(C)Oc2ccc(S(=O)(=O)c3ccc(C#N)cc3)cc2[C@@H](N2CCCC2=O)[C@@H]1O (relative stereo),234 to 235
9,NS(=O)(=O)c1ccc(NN=Cc2ccc(Cl)cc2)cc1,181 to 182
10,CC(=O)C1=C(O)C(=C(C)Nc2cc(NC(=O)C(O)CO)cc(NC(=O)C(O)CO)c2)C(=O)OC1=O (stereo not drawn),231
11,O=C1CCC(c2ccc(-c3ccccc3F)cc2)O1 (stereo not drawn),74 to 75
12,COCCOc1nc(N)nc(-c2ccccc2)c1-c1ccc(=O)n(C(C)C)n1,128 to 130
13,Cc1[nH]c(-c2ccccc2)c(N)c1C(=O)Nc1ccccc1,271 to 273
14,Cc1ccc(-c2ccc3c(c2)C=C(C(=O)O)CC(c2ccccc2)O3)cc1 (stereo not drawn),296 to 297
15,CCCOc1ccc(-c2ccc3c(c2)C=C(C(=O)OC)CCN3C=O)cc1,152 to 153
16,N#CCN1CCOC(c2ccccc2)(c2ccccc2)CC1,119 to 121
17,O=C(NCc1ccc(F)cc1)c1sc2ccccc2c1Br,120 to 125
18,CCc1n[nH]c(=O)n1CCOc1ccccc1,136 to 139
19,COC(=O)c1cccc2c(-c3ccc(O)cc3)n(C(C)C)nc12,195 to 196
20,O=C(O)C(Sc1ccccc1)c1ccc(Oc2ccc(Cl)cc2)cc1 (stereo not drawn),156 to 158
21,Cc1ccc(S(=O)(=O)N2CCC(CC(C#N)(c3ccccc3)c3ccccc3)CC2)cc1,130
22,Cc1ccc(S(=O)(=O)N2CCC[C@H]2C(=O)N[C@@H](Cc2ccc(OCCCN3CCN(C)CC3)cc2)C(=O)O)cc1,80 to 83
23,COc1cccc2c1C(=O)OC2(C)O (stereo not drawn),156 to 158
24,COC(=O)CCc1ccc(NC(=O)c2cc(C(C)C)c(C(C)C)o2)cc1,93 to 94
25,Cc1ccc2c(O)c3c(=O)[nH][nH]c(=O)c3nc2c1,> 395

row,SMILES,melting point [°C]
1,OC1CN2[C@H]3CC[C@@H]2[C@@H]1[C@@H](c1ccc(Cl)c(Cl)c1)C3 (stereo partly drawn),156 to 158
2,O=C1CCN(Cc2ncccc2O)CC1C(c1ccccc1)c1ccccc1 (stereo not drawn),121 to 122
3,Nc1ccc2c(=O)n3c(nc2c1)C(=Cc1ccccc1Cl)CC3,275 to 280
4,NS(=O)(=O)c1ccc(-c2cc(-c3nc(-c4ccc(F)cc4)cc(C(F)(F)F)n3)ccn2)s1,282
5,NC(=O)c1cnc2ccsc2c1Cl,180 to 182
6,CC1(C)CC(NC(=O)CCC(=O)O)CC(C)(C)N1OC1CCCCC1,136 to 138
7,Cc1oc(-c2ccccc2)nc1COc1ccc(CCCO)cn1,89 to 90
8,COC(=O)C(NS(=O)(=O)c1ccc(-c2ccc(NC(=O)c3oc4cccc(C(O)CO)c4c3C)cc2)cc1)C(C)C (stereo not drawn),90 to 95
9,CC(C)[C@H](NC(=O)N(C)Cc1cccnc1)C(=O)N[C@@H](Cc1ccccc1)[C@H](O)[C@@H](O)[C@H](Cc1ccccc1)NC(=O)[C@@H](NC(=O)N(C)Cc1ccccn1)C(C)C,92 to 94
10,O=C1c2ccccc2C(=O)N1CCc1ccc(C=Cc2ccccc2)cc1,212 to 215
11,Cc1cc(NC2=NCCN2)n(C)n1,167 to 169
12,COc1ccccc1-n1c(=O)[nH]c2c(C(N)=O)nc(NCCO)nc21,157 to 160
13,C=CCN(c1ncnc2c1ncn2CCCCCCCCC(=O)O)C1CCCCC1,100 to 102
14,CCCNc1c(CN)cnc2cn[nH]c12,97 to 100
15,CCOC(=O)C1CCc2c(c3ccccc3n2C(=O)c2ccccc2)C1 (stereo not drawn),67 to 69
16,CC(C)(C)c1n[nH]c2c1C(C1CCCCC1)N(c1ccc(-c3ccon3)cc1)C2=O (stereo not drawn),251 to 252
17,Cc1c(F)c(N2CCC(N)C2)c(C)c2c1c(=O)c(C(=O)O)cn2C1CC1 (stereo not drawn),96 to 98
18,O=C(Nc1cc(S(=O)(=O)NCCO)sc1Cl)c1cnn2c(C(F)F)cc(-c3ccc(C(F)(F)F)cc3)nc12,209
19,Cc1nc2c(CCc3ccccc3)cccn2c1CC#N,120 to 123
20,COC(=O)c1cnccc1NC(=O)C(C)CS (stereo not drawn),54 to 56
21,C[N+](C)(CCl)CCCC(=O)[O-],100 to 101
22,COC(=O)C1=CC(=O)CC(c2ccc(Cl)cc2)N1 (stereo not drawn),113 to 114
23,CC(=O)OCC(C)(C)C(=O)O,56 to 59
24,COc1ccc(C(=O)Nc2ccccc2)cc1NC(=S)Nc1cccc(C#N)c1,183 to 185
25,O=C(O)c1ccc(C2=NOC(c3cc(Cl)cc(Cl)c3)(C(F)(F)F)C2)cc1 (stereo not drawn),237 to 240

row,SMILES,melting point [°C]
1,OC1CCNC(Cc2ccccc2)C1 (stereo not drawn),114
2,O=C(c1ccccc1)N1CCC2(CCc3c2[nH]c2ccccc32)CC1,231 to 232
3,Cn1ncc(C(=O)N2CCOCC2)c1C(=O)Nc1ccc2nc(-c3cccnc3)nn2c1,229
4,CCOC(=S)c1cc(Cl)c(C)c(-c2cc(C)no2)c1C,79 to 82
5,NC(=CC(=O)[C@H](Cc1ccccc1)N(Cc1ccccc1)Cc1ccccc1)Cc1ccccc1,101 to 102
6,CC(=O)NCCc1ccc(CCl)cc1,86 to 88
7,CC(Oc1ccc2nc(N)sc2c1)c1c(F)ccc(Cl)c1F (stereo not drawn),160
8,Cn1cc(-c2cc3cccnc3[nH]2)c2cc(C(=O)N(CCO)CCO)ccc21,230 to 232
9,O=C(CBr)CC(=O)Nc1cccc(C(F)(F)F)c1,66 to 68
10,C=CCOC(=O)c1ccc(OC(=O)c2ccc(OC)c(C34CC5CC(CC(C5)C3)C4)c2)c(C(C)(C)C)c1,113 to 115
11,COC(=O)N=C(NC(=O)OC)Nc1ccc(SCC(C)C)cc1NC(=O)CSC,138 to 140
12,COc1c(-c2ccc3cc(NS(C)(=O)=O)ccc3c2)cc(-n2ccc(=O)[nH]c2=O)cc1C(C)(C)C(=O)O,> 300
13,CCCCCCCCCCCCCCCCCCC(CO)CC1(C)OCCO1 (stereo not drawn),34 to 35
14,Cc1nc2ccccn2c1-c1csc(Nc2ccc(C(=O)NO)cc2)n1,188
15,COC(=O)c1cscc1NC(=O)NCCN1CCN(c2ccccc2OC)CC1,195 to 199
16,CC(C)(C)OC(=O)CC(=O)c1ccco1,74 to 75
17,COC(=O)CCc1cc2cc(Cl)ccc2n1S(=O)(=O)c1ccc(C(F)(F)F)cc1,82 to 86
18,CN1CCN(c2cccc3c2C=C(C#N)CC3)CC1,104 to 105
19,CN(C)Cc1nnc2n1-c1ccc(C(F)(F)F)cc1C(c1ccccc1)=[N+]([O-])C2,188 to 190
20,CCOC(=O)c1c[nH]c2c(OCOC)ccc(OC)c2c1=O,175 to 177
21,CC(=O)NC[C@H]1CN(c2ccc(N3CCC4(CC3)C[C@@H]4C#N)c(F)c2)C(=O)O1,156
22,COCCn1nnc2cc3c(cc2c1=O)OCN(C1CC1)C3=O,103 to 105
23,CCc1nc2c(C)cc(C)nc2n1Cc1ccc(C(=C(SC)c2nnn[nH]2)c2ccccc2)cc1,116 to 119

# — a melting point compilation (Tetko et al.; mined from patent text by program, amines drawn as free bases though some values may be those of a salt)
